Assay results: patent publication US20190127456A1, “METHODS OF TREATING IDIOPATHIC PULMONARY FIBROSIS” (FibroGen, Inc., priority 2017, published 2019)

How the values were obtained:
IPF = assay: Phase two study in IPF patients: UCSD Shortness of Breath Questionnaire (UCSD-SOBQ); format: in vivo, human; conditions: for mean UCSD-SOBQ score: IPF patients, n=22, FIG. 6 change from baseline
Excerpt: A sub-set of patients in the Phase two clinical trial described above in Example 2 (pamrevlumab n=22, placebo n=20), self-administered the University of California, San Diego—Shortness of Breath Questionnaire (UCSD-SOBQ) at the start of therapy (baseline) and then every 12 weeks while enrolled in the 48 week study. The UCSD-SOBQ has been validated as an acceptable measure to assess change in dyspnea over time in IPF (Swigris et al., Respir Med. 2012 October; 106(10): 1447-1455).
The questionnaire has 24 sections that assess dyspnea associated with activities of daily living (ADLs) in different lung disorders, including IPF. Twenty-one sections relate to the severity of dyspnea experienced during different daily activities, while three sections assess the limitations due to shortness of breath, fear of harm from overexertion and fear of shortness of breath. Each question has a 6-point scale (0=“not at all” to 5=“maximal or unable to do because of breathlessness”. The total score ranges from 0 to 120, with higher scores indicating greater dyspnea.
An ANCOVA model with treatment as fixed effect and baseline UCSD-SOBQ score as covariate was applied to observed and imputed data at each visit. Missing results at post-baseline visits were mputed using the predicted values from a random coefficient model. The analysis included all subjects who had baseline and at least one post-baseline UCSD-SOBQ evaluation.

[1] = tested on: fibrosis genes in irradiated lung; assay: Microarray analysis of mRNA transcripts in irradiated lung; format: in vivo, mouse
Protocol: C57B1/6 mice were irradiated with 14.5 Gy photons; full thorax, single dose. Treatment with therapeutic agent(s) (pamrevlumab, pirfenidone, and/or nintedanib) was initiated 16 weeks post-irradiation and continued for 8 weeks. Pamrevlumab (FG) was given IP, BIW, at 40 mg/kg; pirfenidone (PF) was given PO in chow, QD, at 300 mg/kg; nintedanib (ND) was given PO in chow, QD, at 100 mg/kg. Treatment with each agent alone, with combinations of two, and with a triple combination were carried out. Controls included non-irradiated mice, mice that were irradiated and not treated, and mice that were irradiated and given human IgG. Endpoint measurements were taken at 24 weeks for HRCT (lung structure), blood gas analysis (lung function), histology and gene expression analysis.
Microarray analysis of mRNA transcripts of numerous genes at 24 weeks after RT were carried out by standard techniques to compare the expression profiles of irradiated and treated animals to irradiated animals that were not further treated. The results of the later group, RT (control), were used to normalize the expression data from the other groups. Briefly, RNA from 4-7 animals per condition (RT (control), RT+hIgG, RT+FG, RT+ND, RT+PF, RT+FG+ND, RT+FG+PF, RT+ND+PF, RT+FG+ND+PF). Affymetrix 430 2.0 data was used. RT induced changes (≥1.5×, p<0.05) were filtered for treatment dependent correction (>50% correction, p<0.05). 80 RT-induced and 68 RT-suppressed transcripts were normalized at least 50% by one or more treatments. The resulting list was dominated by pamrevlumab-dependent normalization. Functional analysis indicated pamrevlumab treatment preferentially normalized RT genes known to be regulated by TGFβ and TNF.

[2] = irradiated mouse lung, 24 weeks after RT, 8 weeks treatment, RT fold change 0.4

Q: pamrevlumab was tested. Which “mean UCSD-SOBQ score” value (IPF; Week 12) did it give?
A: 1.98

Q: And the “mean UCSD-SOBQ score” value (IPF; Week 36)?
A: 3.76

Q: And the “mean UCSD-SOBQ score” value (IPF; Week 48)?
A: 2.26

Q: And the “difference in mean UCSD-SOBQ score between the two arms” value (IPF; pamrevlumab vs placebo, Week 48, p-value=0.0460)?
A: −13.32 points

Q: And the “% Normalization of gene expression, Igfbp5” value ([1]; irradiated mouse lung, 24 weeks after RT, 8 weeks treatment, RT fold change 0.3)?
A: 70%

Q: What about the “% Normalization of gene expression, Abca3” value [1, 2] of the same substance?
A: 75%

Q: What about the “% Normalization of gene expression, Gdf2” value [1, 2] of the same substance?
A: 68%

Q: And the “% Normalization of gene expression, Cx3cl1” value ([1]; irradiated mouse lung, 24 weeks after RT, 8 weeks treatment, RT fold change 0.5)?
A: 57%

Q: What about the “% Normalization of gene expression, Retnla” value ([1]; irradiated mouse lung, 24 weeks after RT, 8 weeks treatment, RT fold change 2.0) of the same substance?
A: 43%

Q: And the “% Normalization of gene expression, Nt5e” value ([1]; irradiated mouse lung, 24 weeks after RT, 8 weeks treatment, RT fold change 2.1)?
A: 53%

Q: And the “% Normalization of gene expression, Plat” value ([1]; irradiated mouse lung, 24 weeks after RT, 8 weeks treatment, RT fold change 2.2)?
A: 51%

Q: And the “% Normalization of gene expression, Ccr2” value ([1]; irradiated mouse lung, 24 weeks after RT, 8 weeks treatment, RT fold change 2.4)?
A: 37%

Q: And the “% Normalization of gene expression, Igfbp7” value ([1]; irradiated mouse lung, 24 weeks after RT, 8 weeks treatment, RT fold change 2.6)?
A: 50%

Q: And the “% Normalization of gene expression, Cdkn2a” value ([1]; irradiated mouse lung, 24 weeks after RT, 8 weeks treatment, RT fold change 2.7)?
A: 35%

Q: What about the “% Normalization of gene expression, Apln” value ([1]; irradiated mouse lung, 24 weeks after RT, 8 weeks treatment, RT fold change 5.3) of the same substance?
A: 59%

Q: And the “% Normalization of gene expression, Wisp1” value ([1]; irradiated mouse lung, 24 weeks after RT, 8 weeks treatment, RT fold change 6.9)?
A: 52%

Q: What about the “% Normalization of gene expression, Wisp1” value ([1]; irradiated mouse lung, 24 weeks after RT, 8 weeks treatment, RT fold change 11.9) of the same substance?
A: 54%

Q: And the “normalization of fibrosis-related transcripts” value ([1]; microarray at 24 weeks after RT, monotherapies compared)?
A: normalized more fibrosis-related transcripts than other monotherapies
